# From patent publication US5985871A, “Benzoxazine compounds for enhancing synaptic response” (Cortex Pharmaceuticals, Inc., priority 1997, dated 1999)
# What was measured:
# AMPA receptors = assay: field EPSP response in rat hippocampal slices; type: cell-based; details: for EPSP response, in words: comment on Table 1
# Procedure: Hippocampal tissue slices were perfused with artificial cerebrospinal fluid containing increasing concentrations of test compound at 15-30 minute intervals separated by perfusion with ACSF without the test compound, and the percent increases in EPSP amplitude and half-width before and after compound perfusion were determined.
# The physiological effects of compounds in accordance with the invention can be tested in vitro with slices of rat hippocampus according to the following procedure. Excitatory responses (field EPSPs) are measured in hippocampal slices, which are maintained in a recording chamber continuously perfused with artificial cerebrospinal fluid (ACSF). During a 15-30 minute interval, the perfusion medium is switched to one containing various concentrations of the test compounds. Responses collected immediately before and at the end of drug perfusion were superimposed in order to calculate both the percent increase in EPSP amplitude and percent increase in the width of the response at one-half the peak height (half-width). An increase in either measure, that is, of the amplitude or half-width, can be used as an indicator of beneficial therapeutic activity.
# To conduct these tests, the hippocampus was removed from anesthetized, 2 month old Sprague-Dawley rats and tissue slices (400 micrometers thick) were prepared and maintained in an interface chamber at 35° C. using conventional techniques [see, for example, Dunwiddie and Lynch, J. Physiol. […] A bipolar nichrome stimulating electrode was positioned in the dendritic layer (stratum radiatum) of the hippocampal subfield CA1 close to the border of subfield CA3.
# Current pulses (0.1 msec) through the stimulating electrode activate a population of the Schaffer-commissural (SC) fibers, which arise from neurons in the subdivision CA3 and terminate in synapses on the dendrites of CA1 neurons. Activation of these synapses causes them to release the transmitter glutamate. Glutamate binds to the post-synaptic AMPA receptors which then transiently open an associated ion channel and permit a sodium current to enter the postsynaptic cell. This current results in a voltage in the extracellular space (the field excitatory post-synaptic potential or field "EPSP") which is recorded by a high impedance recording electrode positioned in the middle of the stratum radiatum of CA1.
# For the experiments summarized in Table 1, the intensity of the stimulation current was adjusted to produce half-maximal EPSPs (typically about 1.5-2.0 mV). Paired stimulation pulses were given every 40 sec with an interpulse interval of 200 msec (see below). The field EPSPs of the second response were digitized and analyzed to determine amplitude, half-width, and response area. If the responses were stable for 15-30 minutes (baseline), test compounds were added to the perfusion lines for a period of about 20 minutes. The perfusion was then changed back to regular ACSF.
# Paired-pulse stimulation was used because stimulation of the SC fibers, in part, activates interneurons that generate an inhibitory postsynaptic potential (IPSP) in the pyramidal cells of CA1. This feed forward IPSP typically sets in after the EPSP reaches its peak. It accelerates the repolarization and shortens the decay phase of the EPSP, and thus could partially mask the effects of the test compounds. One of the relevant features of the feed-forward IPSP is that it can not be reactivated for several hundred milliseconds following a stimulation pulse. This phenomenon can be employed to advantage to eliminate IPSP by delivering paired pulses separated by 200 milliseconds and using the second ("primed") response for data analysis.
# rats = assay: 8-arm radial maze memory test; type: in vivo, rat; details: for Maze MED (Minimum Effective Dose) / minimal effective dose: threshold dose for enhancing memory in rats, 8-arm radial maze; for minimal effective dose: Rattus norvegicus, read-out: Maze MED (Minimum Effective Dose)
# Procedure: The right bar of each pair represents the results for the same animals administered vehicle alone on alternate days of testing.
# All of the data in FIG. 1 were obtained using the same group of ten rats. […] In other words, vehicle alone was administered to the group on days 1, 3 and 5, and compound at a selected dosage was administered on days 2 and 4. […] Error bars indicate the standard error of the mean (SEM). The asterisks (*) in the figure indicate data wherein p<0.05 by the paired t test.
# [1] = peripheral administration in humans; Guenzi and Zanetti 1990; cited from earlier work
# brain AMPA receptors = details: metabolite of aniracetam; cited from earlier work
# [2] = compound concentration 30 μM, rat hippocampal slice, field CA1
# [3] = compound concentration 100 μM, rat hippocampal slice, field CA1
smiles,measurement,setting,value
"O=C1c2cc3c(cc2OC2OCCN12)OCO3 (racemic) [Compound 1, 7,8-Dihydro-5aH, 10H-1,3-dioxolo[4,5-g]oxazolo[2,3-b][1,3]benzoxazin-10-one]",EPSP Response (percent increase in amplitude of the EPSP response),AMPA receptors; [2],34%
same,EPSP Response (percent increase in amplitude of the EPSP response),"AMPA receptors; compound concentration 50 μM, resolved enantiomers of compound 1",80%
same,average total number of errors,"rats; FIG. 1, 0.03, 0.1 and 0.5 mg/kg versus vehicle, ten rats","significant, dose-dependent reduction"
same,average number of correct choices before the first error,"rats; FIG. 1, 0.03, 0.1 and 0.5 mg/kg versus vehicle, ten rats, retention phase","significant, dose-dependent increase"
same,Maze MED (Minimum Effective Dose),rats,0.05 mg/kg
"O=C1c2cc3c(cc2OC2OCCN12)OCO3 (single isomer, unassigned) [Column Fraction 1]",EPSP Response (percent increase in amplitude of the EPSP response),"AMPA receptors; compound concentration 50 μM, resolved enantiomers of compound 1, listed as first-eluting enantiomer",80%
same,Maze MED (Minimum Effective Dose),rats; listed as active enantiomer of compound 1,0.01 mg/kg
"O=C1c2cc3c(cc2OC2OCCN12)OCO3 (single isomer, unassigned) [Column Fraction 2]",EPSP Response (percent increase in amplitude of the EPSP response),"AMPA receptors; compound concentration 50 μM, resolved enantiomers of compound 1, listed as second-eluting enantiomer",does not detectably change
same,MED of less active enantiomer relative to active enantiomer,"rats; enantiomers of compound 1, maze test",50 fold
same,Maze MED (Minimum Effective Dose),rats; listed as less active enantiomer,0.5 mg/kg
"CC1CN2C(=O)c3cc4c(cc3OC2O1)OCO4 (single isomer, unassigned) [Compound 5.1, 7,8-Dihydro-7-methyl-5aH, 10H-1,3-dioxolo[4,5-g]oxazolo[2,3-b][1,3]benzoxazin-10-one]",EPSP Response (percent increase in amplitude of the EPSP response),AMPA receptors; [2],14%
"CC1CN2C(=O)c3cc4c(cc3OC2O1)OCO4 (single isomer, unassigned) [Compound 5.2, 7,8-Dihydro-7-methyl-5aH, 10H-1,3-dioxolo[4,5-g]oxazolo[2,3-b][1,3]benzoxazin-10-one]",EPSP Response (percent increase in amplitude of the EPSP response),AMPA receptors; [2],10%
"O=C1c2cc3c(cc2OC2CCCN12)OCO3 (centres unmarked) [Compound 1c, reference compound]",EPSP Response (percent increase in amplitude of the EPSP response),AMPA receptors; [3],25%
same,minimal effective dose,rats,1 mg/kg
"O=C(NCCO)c1cc2c(cc1O)OCO2 [Compound 1i, 2-(2-Hydroxy-4,5-methylenedioxybenzamido)ethanol]","EPSP response, in words",AMPA receptors,increased EPSP response
same,EPSP Response (percent increase in amplitude of the EPSP response),AMPA receptors; [3],8%
"O=C1c2cc3c(cc2OC2OCCN12)OCCO3 (centres unmarked) [Compound 2, 8,9-Dihydro-6aH, 11H-1,4-dioxan[2,3-g]oxazolo[2,3-b][1,3]benzoxazin-11-one]",EPSP Response (percent increase in amplitude of the EPSP response),"AMPA receptors; compound concentration 5 μM, rat hippocampal slice, field CA1",35%
same,minimal effective dose,rats,0.01 mg/kg
"O=C1c2cc3c(cc2OC2CCCN12)OCCO3 (centres unmarked) [Compound 2c, reference compound]",EPSP Response (percent increase in amplitude of the EPSP response),"AMPA receptors; compound concentration >30 μM, rat hippocampal slice, field CA1",25%
same,minimal effective dose,rats,0.1 mg/kg
"CC1(C)Oc2cc3c(cc2O1)C(=O)N1CCOC1O3 (centres unmarked) [Compound 3, 7,8-Dihydro-2,2-dimethyl-5aH, 10H-1,3-dioxolo[4,5-g]oxazolo[2,3-b][1,3]benzoxazin-10-one]",EPSP Response (percent increase in amplitude of the EPSP response),AMPA receptors; [2],33%
"O=C1c2cc3c(cc2OC2SCCN12)OCO3 (centres unmarked) [Compound 4, 7,8-Dihydro-5aH, 10H-1,3-dioxolo[4,5-g]thiazolo[2,3-b][1,3]benzoxazin-10-one]","EPSP response, in words",AMPA receptors,About the same activity
same,EPSP Response (percent increase in amplitude of the EPSP response),AMPA receptors; [2],20%
"CC1COC2Oc3cc4c(cc3C(=O)N12)OCO4 (centres unmarked) [Compound 6, 7,8-Dihydro-8-methyl-5aH, 10H-1,3-dioxolo[4,5-g]oxazolo[2,3-b][1,3]benzoxazin-10-one]",EPSP Response (percent increase in amplitude of the EPSP response),AMPA receptors; [3],10%
"O=C1c2cc3c(cc2OC2OCCCN12)OCO3 (centres unmarked) [Compound 7, 8,9-Dihydro-5aH, 7H, 10H-1,3-dioxolo[4,5-g][1,3]oxazino[2,3-b][1,3]benzoxazin-11-one]",EPSP Response (percent increase in amplitude of the EPSP response),AMPA receptors; [2],15%
"O=C1c2cc3c(cc2OC2CCCCN12)OCO3 (centres unmarked) [Compound 7c, reference compound]",EPSP Response (percent increase in amplitude of the EPSP response),"AMPA receptors; compound concentration 300 μM, rat hippocampal slice, field CA1",25%
"CC12OCCN1C(=O)c1cc3c(cc1O2)OCO3 (centres unmarked) [Compound 8, 7,8-Dihydro-5a-methyl-10H-1,3-dioxolo[4,5-g]oxazolo[2,3-b][1,3]benzoxazin-10-one]",EPSP Response (percent increase in amplitude of the EPSP response),AMPA receptors; [3],8%
"COc1ccc(C(=O)N2CCCC2=O)cc1 [aniracetam, N-anisoyl-2-pyrrolidinone]",fraction of drug converted to anisoyl-GABA,[1],about 80%
COc1ccc(C(=O)NCCCC(=O)O)cc1 [anisoyl-GABA],aniracetam-like effects,brain AMPA receptors,only weak aniracetam-like effects
